In PubChem BioAssay AID588657 (The Scripps Research Institute Molecular Screening Center, 2011) one finds inhibition data, which are given here for three molecules.

The structures appear in SMILES notation. Activity calls are given as the source filed them.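 The calls were made as follows: active = EGR1 protein level shifted at least 30% up or down versus solvent-only cells; inactive = shift under 30% either way.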

Usually inhibition stands for the change of the read-out against control, counted positive when it falls.

The target of this assay is Early growth response protein 1 (Homo sapiens) (UniProt P18146). In words: altered EGR1 protein amount, HT29 – cell-based, HT29 colorectal carcinoma, chemiluminescent western blot, counter-screen for KLF5 inhibitor project, late-stage follow-up (AID 588657). To be noted: HT29 cells, 24 h, at 10 µM, hits give high values.
Sequence of Early growth response protein 1 (Homo sapiens) (P18146 whole entry, looked up): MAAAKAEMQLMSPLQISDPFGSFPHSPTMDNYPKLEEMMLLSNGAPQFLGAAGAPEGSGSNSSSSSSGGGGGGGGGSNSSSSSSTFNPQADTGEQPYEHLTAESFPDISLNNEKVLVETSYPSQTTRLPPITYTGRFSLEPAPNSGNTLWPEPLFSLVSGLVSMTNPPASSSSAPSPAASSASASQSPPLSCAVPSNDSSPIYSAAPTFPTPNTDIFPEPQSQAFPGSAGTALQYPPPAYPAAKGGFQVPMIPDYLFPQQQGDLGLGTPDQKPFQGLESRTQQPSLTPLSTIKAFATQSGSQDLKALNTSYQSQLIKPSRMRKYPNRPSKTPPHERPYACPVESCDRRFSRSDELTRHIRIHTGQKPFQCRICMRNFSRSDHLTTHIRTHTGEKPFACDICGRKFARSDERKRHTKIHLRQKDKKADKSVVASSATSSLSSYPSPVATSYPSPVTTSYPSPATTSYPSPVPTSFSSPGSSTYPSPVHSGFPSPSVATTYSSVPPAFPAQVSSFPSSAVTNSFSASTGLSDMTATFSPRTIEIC
`CN(C(=O)COC(=O)/C=C/c1cccc([N+](=O)[O-])c1)C1CCS(=O)(=O)C1` (stereo not drawn): the inhibition is 29.7%.

With `CN(C(=O)CNC(=O)/C=C/c1cccc(Cl)c1)C1CCS(=O)(=O)C1` (stereo not drawn), the inhibition is 9.34% (inactive).

With `CN(C(=O)CNC(=O)/C=C/c1cccc(Cl)c1)C1CCS(=O)(=O)CC1`, the inhibition was 64.5%.
